Consider three compounds from patent publication US7030135B2, “Inhibitors of 11-β-hydroxy steroid dehydrogenase type 1” (Biovitrum AB, priority 2000, dated 2006).

SMILES strings stand for the structures.

In general, Ki refers to the dissociation constant of the complex between target and ligand, obtained from inhibition or displacement.

The target in assay [1] is T1, human 11-β-hydroxysteroid dehydrogenase type-1 enzyme (11-β-HSD1) (Homo sapiens, UniProt P28845).
T1 construct: made in house; host or cells: Pichia pastoris
T1 sequence (P28845 whole entry): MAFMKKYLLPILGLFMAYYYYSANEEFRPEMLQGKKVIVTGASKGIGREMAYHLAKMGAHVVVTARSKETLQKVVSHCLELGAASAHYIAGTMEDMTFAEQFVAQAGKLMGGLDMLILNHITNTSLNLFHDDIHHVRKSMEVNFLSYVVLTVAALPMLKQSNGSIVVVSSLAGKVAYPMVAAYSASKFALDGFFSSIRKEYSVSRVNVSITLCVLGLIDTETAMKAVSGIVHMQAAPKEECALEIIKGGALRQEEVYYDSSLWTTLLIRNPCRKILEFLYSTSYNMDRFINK
As to the kind of experiment: 11-β-HSD1 enzyme scintillation proximity assay. Type of assay: biochemical. As to conditions: human 11-β-HSD1 expressed in Pichia pastoris; Ki calculated from IC50 (Cheng-Prusoff). An excerpt:
[1,2(n)-^3H]-cortisone was purchased from Amersham Pharmacia Biotech. Anti-cortisol monoclonal mouse antibody, clone 6D6.7 was obtained from Immunotech and Scintillation proximity assay (SPA) beads coated with monoclonal antimouse antibodies were from Amersham Pharmacia Biotech. NADPH, tetrasodium salt was from Calbiochem and glucose-6-phosphate (G-6-P) was supplied by Sigma The human 11-β-hydroxysteroid dehydrogenase type-1 enzyme (11-β-HSD1) was expressed in Pichia pastoris. 18-β-glycyrhetinic acid (GA) was obtained from Sigma. The serial dilutions of the compounds were performed on a Tecan Genesis RSP 150. […]
The multiplication of plates was done on a WallacQuadra. The amount of the product [^3H]-cortisol, bound to the beads was determined in a Packard, Top Count microplate liquid scintillation counter. […]
The plates were covered with plastic film and incubated on a shaker for 30 minutes, at room temperature, before counting. The amount of [^3H]-cortisol, bound to the beads was determined in a microplate liquid scintillation counter.
The calculation of the Ki values for the inhibitors was performed by use of Activity Base. The Ki value is calculated from IC50 and the Km value is calculated using the Cheng Prushoff equation (with reversible inhibition that follows the Michaelis-Menten equation): […] [Cheng, Y. C.; Prushoff, W. H. Biochem. Pharmacol. 1973, 22, 3099–3108]. […]

In assay [2] the test system is bone nodule formation. As to conditions: cited from earlier work.

As for `Cc1cc(Cl)cc(Cl)c1S(=O)(=O)Nc1nc2c(s1)C(=O)CC(C)(C)C2` [Example 8, 2,4-Dichloro-N-(5,5-dimethyl-7-oxo-4,5,6,7-tetrahydro-1,3-benzothiazol-2-yl)-6-methylbenzenesulfonamide.], the Ki in assay [1] is 0.028 µM.

Turning to `CC1(C)[C@@H](OC(=O)CCC(=O)O)CC[C@]2(C)[C@H]3C(=O)C=C4[C@@H]5C[C@@](C)(C(=O)O)CC[C@]5(C)CC[C@@]4(C)[C@]3(C)CC[C@@H]12` [carbenoxolone], the “negative glucocorticoid effect on bone nodule formation” value in assay [2] is “could be blocked”. For `Cc1cc(Br)ccc1S(=O)(=O)Nc1nc2c(s1)C(=O)CC(C)C2` (stereo not drawn) [Example 16, 4-Bromo-2methyl-N-(5methyl-7-oxo-4,5,6,7-tetrahydro-1,3-benzothiazol-2-yl)benzenesulfonamide], in assay [1], the Ki was 0.227 µM.
